Experimental findings from BindingDB's records for doi:10.1016/S0960-894X(01)80746-0 (1993) are described below.

The nature of this assay: Tested for inhibitory activity of compound against Phospholipase A2 (PLA2).

As a reminder, the IC50 is the midpoint of a concentration-inhibition curve. `CCCCCCCCCCCC(=O)N[C@H](CCCC)COP(=O)([O-])OCC[N+](C)(C)C` [(2-{[2-((S)-Dodecanoylamino)-hexyloxy]-hydroxy-phosphoryloxy}-ethyl)-trimethyl-ammonium] gave an IC50 of 5.3 µM.
The same measure for `CCCCCCCCCCCC(=O)N1C(=O)OC[C@@H]1COP(=O)([O-])OCC[N+](C)(C)C` [{2-[((R)-3-Dodecanoyl-2-oxo-oxazolidin-4-ylmethoxy)-hydroxy-phosphoryloxy]-ethyl}-trimethyl-ammonium]: 31 µM.
